Assay results as given in patent US12187773B2, “Modified GIP peptide analogues” (Antag Therapeutics ApS, priority 2018, dated 2025).
*1 amine or outer side, *2 acyl side, *3 side chain or, on linkers, in order; H or OH if unused. Where a SMILES comes first, the peptide text is derived from it. Side-chain parts run from the residue outwards. [ ]: non-standard residue; d: D form. The star is where a group is joined. C16 diacid = O=C(O)CCCCCCCCCCCCCCC(=O)*; γGlu = O=C(O)[C@H](CCC(=O)[*:2])N[*:1]; pGlu = O=C1CC[C@@H](C(=O)O)N1; AEEA = NCCOCCOCC(=O)O

Tests used:
Assay type in all cases: cell-based
human GIP receptor [1] = target: T1, human GIP receptor (Homo sapiens, UniProt P48546); assay: cAMP agonism (CisBio cAMP Dynamic 2 HTRF assay); conditions: for Emax: HEK293, read-out: cAMP agonism, % Efficacy, Table 1C, HEK-293 cells
T1 sequence (P48546 22-466): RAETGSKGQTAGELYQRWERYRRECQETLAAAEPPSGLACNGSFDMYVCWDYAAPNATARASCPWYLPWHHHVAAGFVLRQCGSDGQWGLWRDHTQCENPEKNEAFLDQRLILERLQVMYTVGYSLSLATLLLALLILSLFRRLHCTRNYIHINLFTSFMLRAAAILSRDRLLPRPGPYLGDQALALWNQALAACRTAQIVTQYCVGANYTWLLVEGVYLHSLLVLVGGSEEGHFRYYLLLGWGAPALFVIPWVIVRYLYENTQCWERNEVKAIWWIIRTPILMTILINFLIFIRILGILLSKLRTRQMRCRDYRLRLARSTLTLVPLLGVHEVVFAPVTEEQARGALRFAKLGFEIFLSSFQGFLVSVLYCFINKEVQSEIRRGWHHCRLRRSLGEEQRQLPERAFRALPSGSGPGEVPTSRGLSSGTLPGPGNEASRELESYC
Experimental: To test for agonistic properties at the GIP receptor, compounds were diluted and added to cells as described above and incubated for 30 min at 37° C. The resulting increase in intracellular cAMP was determined using the CisBio cAMP Dynamic 2 HTRF Assay Kit as described above.

human GIP receptor [2] = target: T1, human GIP receptor; assay: cAMP antagonism (CisBio cAMP Dynamic 2 HTRF assay); design: pCMV-Script vector; conditions: Table 1C, CisBio, HEK-293 cells; for IC50: cAMP antagonism, nM (IC50), agonist GIP1-42 at EC50
Summary of the method: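 Four-parameter fits of cAMP dose-response gave pIC50. cAMP fall was quantified by HTRF competition, ratio 665/620 nm after 60 min at room temperature, against a cAMP standard curve.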

human GIP receptor [3] = target: T1, human GIP receptor; assay: cAMP accumulation, antagonism (DiscoveRx HitHunter cAMP XS assay); design: host or cells: COS-7 (transient, calcium phosphate; pCMV-Script vector); conditions: Table 1B, DiscoveRx; for cAMP antagonism, % inhib: COS-7 cells, % inhibition of Emax; for IC50: cAMP antagonism, nM (IC50), transiently transfected COS-7 cells
Summary of the method: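 Transiently transfected COS-7 cells expressing human GIP receptor, pretreated with 1 mM IBMX in HBS 30 min at 37 °C. Agonism: ligand 30 min at 37 °C; antagonism: 10 min antagonist preincubation, then GIP at 50-80% maximal response for 20 min. cAMP measured by HitHunter cAMP XS.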

human GIP receptor [4] = target: T1, human GIP receptor; assay: cAMP accumulation, agonism (DiscoveRx HitHunter cAMP XS assay); design: host or cells: COS-7 (transient, calcium phosphate; pCMV-Script vector); conditions: for cAMP agonism, Emax: Table 1B, DiscoveRx, COS-7 cells; for Emax: COS-7, read-out: cAMP agonism, Emax
Summary of the method: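 cAMP accumulation measured by HitHunter cAMP XS in COS-7 cells transiently expressing human GIP receptor, after 30 min in HBS with 1 mM IBMX at 37 °C. Antagonists preincubated 10 min before GIP giving 50-80% of maximum, then 20 min more; agonist mode used 30 min ligand exposure.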

In the case of `CC[C@H](C)[C@H](NC(=O)[C@H](CO)NC(=O)[C@H](Cc1ccc(O)cc1)NC(=O)[C@H](CC(=O)O)NC(=O)[C@H](CO)NC(=O)[C@@H](NC(=O)[C@H](Cc1ccccc1)NC(=O)[C@@H](NC(=O)CNC(=O)[C@@H](N)CO)[C@@H](C)O)[C@@H](C)CC)C(=O)N[C@@H](C)C(=O)N[C@@H](CCSC)C(=O)N[C@@H](CC(=O)O)C(=O)N[C@@H](CCCNC(=N)N)C(=O)N[C@H](C(=O)N[C@@H](CCCCNC(=O)CC[C@H](NC(=O)CCCCCCCCCCCCCCC(=O)O)C(=O)O)C(=O)N[C@@H](CCC(N)=O)C(=O)N[C@@H](CCC(N)=O)C(=O)N[C@@H](CC(=O)O)C(=O)N[C@@H](Cc1ccccc1)C(=O)N[C@H](C(=O)N[C@@H](CC(N)=O)C(=O)N[C@@H](Cc1c[nH]c2ccccc12)C(=O)N[C@@H](CC(C)C)C(=O)N[C@@H](CC(C)C)C(=O)N[C@@H](C)C(=O)N[C@@H](CCC(N)=O)C(=O)N[C@@H](CCCNC(=N)N)C(N)=O)C(C)C)[C@@H](C)CC` [AT504] (HELM PEPTIDE1{S.G.T.F.I.S.D.Y.S.I.A.M.D.R.I.K.Q.Q.D.F.V.N.W.L.L.A.Q.R.[am]}|PEPTIDE2{[O=C(O)CCCCCCCCCCCCCCC(=O)[*:2]].[gGlu]}$PEPTIDE1,PEPTIDE2,16:R3-2:R2$$$V2.0; N-terminus assumed), the Emax (human GIP receptor [1]) is reported as 0%, the “cAMP antagonism, % inhib” value (human GIP receptor [2]) is reported as 85% and the IC50 (human GIP receptor [2]) is reported as 39.8 nM. The “cAMP antagonism, % inhib” value (human GIP receptor [3]) was 90%, the IC50 (human GIP receptor [3]) was 21 nM and the “cAMP agonism, Emax” value (human GIP receptor [4]) was “No Agonism”.

With `CC[C@H](C)[C@H](NC(=O)[C@H](CO)NC(=O)[C@H](Cc1ccc(O)cc1)NC(=O)[C@H](CC(=O)O)NC(=O)[C@H](CO)NC(=O)[C@@H](NC(=O)[C@H](Cc1ccccc1)NC(=O)[C@@H](NC(=O)CNC(=O)[C@@H]1CCC(=O)N1)[C@@H](C)O)[C@@H](C)CC)C(=O)N[C@@H](C)C(=O)N[C@@H](CCSC)C(=O)N[C@@H](CC(=O)O)C(=O)N[C@@H](CCCNC(=N)N)C(=O)N[C@H](C(=O)N[C@@H](CCCCNC(=O)CCCCCCCCCCCCCCC(=O)O)C(=O)N[C@@H](CCC(N)=O)C(=O)N[C@@H](CCC(N)=O)C(=O)N[C@@H](CC(=O)O)C(=O)N[C@@H](Cc1ccccc1)C(=O)N[C@H](C(=O)N[C@@H](CC(N)=O)C(=O)N[C@@H](Cc1c[nH]c2ccccc12)C(=O)N[C@@H](CC(C)C)C(=O)N[C@@H](CC(C)C)C(=O)N[C@@H](C)C(=O)N[C@@H](CCC(N)=O)C(=O)N[C@@H](CCCNC(=N)N)C(N)=O)C(C)C)[C@@H](C)CC` [AT390] ([pGlu]GTFISDYSIAMDRIK(C16 diacid)QQDFVNWLLAQR-NH2) the Emax (human GIP receptor [1]) was 4%, the “cAMP antagonism, % inhib” value (human GIP receptor [2]) was 81% and the IC50 (human GIP receptor [2]) was 15.9 nM. The “cAMP antagonism, % inhib” value (human GIP receptor [3]) was 100%, the IC50 (human GIP receptor [3]) was 1 nM and the “cAMP agonism, Emax” value (human GIP receptor [4]) was “No Agonism”.

For `CC[C@H](C)[C@H](NC(=O)[C@H](CO)NC(=O)[C@H](Cc1ccc(O)cc1)NC(=O)[C@H](CC(=O)O)NC(=O)[C@H](CO)NC(=O)[C@@H](NC(=O)[C@H](Cc1ccccc1)NC(=O)[C@@H](NC(=O)CNC(=O)[C@@H](N)CCC(=O)O)[C@@H](C)O)[C@@H](C)CC)C(=O)N[C@@H](C)C(=O)N[C@@H](CCSC)C(=O)N[C@@H](CC(=O)O)C(=O)N[C@@H](CCCNC(=N)N)C(=O)N[C@H](C(=O)N[C@@H](CCCCNC(=O)COCCOCCNC(=O)COCCOCCNC(=O)COCCOCCNC(=O)CC[C@H](NC(=O)CCCCCCCCCCCCCCC(=O)O)C(=O)O)C(=O)N[C@@H](CCC(N)=O)C(=O)N[C@@H](CCC(N)=O)C(=O)N[C@@H](CC(=O)O)C(=O)N[C@@H](Cc1ccccc1)C(=O)N[C@H](C(=O)N[C@@H](CC(N)=O)C(=O)N[C@@H](Cc1c[nH]c2ccccc12)C(=O)N[C@@H](CC(C)C)C(=O)N[C@@H](CC(C)C)C(=O)N[C@@H](C)C(=O)N[C@@H](CCC(N)=O)C(=O)N[C@@H](CCCNC(=N)N)C(N)=O)C(C)C)[C@@H](C)CC` [AT375] (H-EGTFISDYSIAMDRIK([AEEA-AEEA-AEEA-γGlu-C16 diacid])QQDFVNWLLAQR-NH2; N-terminus assumed), the Emax (human GIP receptor [1]) was 6%, the “cAMP antagonism, % inhib” value (human GIP receptor [2]) was 83% and the IC50 (human GIP receptor [2]) was 23.3 nM. For the same compound, the “cAMP antagonism, % inhib” value (human GIP receptor [3]) was 100% and the “cAMP agonism, Emax” value (human GIP receptor [4]) was “No Agonism”.

For `CC[C@H](C)[C@H](NC(=O)[C@H](CO)NC(=O)[C@H](Cc1ccc(O)cc1)NC(=O)[C@H](CC(=O)O)NC(=O)[C@H](CO)NC(=O)[C@@H](NC(=O)[C@H](Cc1ccccc1)NC(=O)[C@@H](NC(=O)CNC(=O)[C@@H]1CCCN1)[C@@H](C)O)[C@@H](C)CC)C(=O)N[C@@H](C)C(=O)N[C@@H](CCSC)C(=O)N[C@@H](CC(=O)O)C(=O)N[C@@H](CCCNC(=N)N)C(=O)N[C@H](C(=O)N[C@@H](CCCCNC(=O)COCCOCCNC(=O)COCCOCCNC(=O)CC[C@H](NC(=O)CCCCCCCCCCCCCCC(=O)O)C(=O)O)C(=O)N[C@@H](CCC(N)=O)C(=O)N[C@@H](CCC(N)=O)C(=O)N[C@@H](CC(=O)O)C(=O)N[C@@H](Cc1ccccc1)C(=O)N[C@H](C(=O)N[C@@H](CC(N)=O)C(=O)N[C@@H](Cc1c[nH]c2ccccc12)C(=O)N[C@@H](CC(C)C)C(=O)N[C@@H](CC(C)C)C(=O)N[C@@H](C)C(=O)N[C@@H](CCC(N)=O)C(=O)N[C@@H](CCCNC(=N)N)C(N)=O)C(C)C)[C@@H](C)CC` [AT518] (H-PGTFISDYSIAMDRIK([AEEA-AEEA-γGlu-C16 diacid])QQDFVNWLLAQR-NH2; N-terminus assumed), the Emax (human GIP receptor [1]) was 0%, the “cAMP antagonism, % inhib” value (human GIP receptor [2]) was 71% and the IC50 (human GIP receptor [2]) was 85.8 nM. For the same compound, the “cAMP antagonism, % inhib” value (human GIP receptor [3]) was 100% and the Emax (human GIP receptor [4]) was 5%.

In the case of `CC[C@H](C)[C@H](NC(=O)[C@H](CO)NC(=O)[C@H](Cc1ccc(O)cc1)NC(=O)[C@H](CC(=O)O)NC(=O)[C@H](CO)NC(=O)[C@@H](NC(=O)[C@H](Cc1ccccc1)NC(=O)[C@@H](NC(=O)CNC(=O)[C@@H](N)CO)[C@@H](C)O)[C@@H](C)CC)C(=O)N[C@@H](C)C(=O)N[C@@H](CCSC)C(=O)N[C@@H](CC(=O)O)C(=O)N[C@@H](CCCNC(=N)N)C(=O)N[C@H](C(=O)N[C@@H](CCCCNC(=O)CCCCCCCCCCCCCCC(=O)O)C(=O)N[C@@H](CCC(N)=O)C(=O)N[C@@H](CCC(N)=O)C(=O)N[C@@H](CC(=O)O)C(=O)N[C@@H](Cc1ccccc1)C(=O)N[C@H](C(=O)N[C@@H](CC(N)=O)C(=O)N[C@@H](Cc1c[nH]c2ccccc12)C(=O)N[C@@H](CC(C)C)C(=O)N[C@@H](CC(C)C)C(=O)N[C@@H](C)C(=O)N[C@@H](CCC(N)=O)C(=O)N[C@@H](CCCNC(=N)N)C(N)=O)C(C)C)[C@@H](C)CC` [AT498] (H-SGTFISDYSIAMDRIK(C16 diacid)QQDFVNWLLAQR-NH2; N-terminus assumed), the “cAMP agonism, % Efficacy” value (human GIP receptor [1]; Table 1C, HEK-293 cells) is reported as 5%, the “cAMP antagonism, % inhib” value (human GIP receptor [2]) is reported as 85% and the IC50 (human GIP receptor [2]) is reported as 13.2 nM. For the same compound, the “cAMP antagonism, % inhib” value (human GIP receptor [3]) was 95%, the IC50 (human GIP receptor [3]) was 21 nM and the Emax (human GIP receptor [4]) was 6%.

With `CC[C@H](C)[C@H](NC(=O)[C@H](CO)NC(=O)[C@H](Cc1ccc(O)cc1)NC(=O)[C@H](CC(=O)O)NC(=O)[C@H](CO)NC(=O)[C@@H](NC(=O)[C@H](Cc1ccccc1)NC(=O)[C@@H](NC(=O)CNC(=O)[C@@H]1CCCN1)[C@@H](C)O)[C@@H](C)CC)C(=O)N[C@@H](C)C(=O)N[C@@H](CCSC)C(=O)N[C@@H](CC(=O)O)C(=O)N[C@@H](CCCNC(=N)N)C(=O)N[C@H](C(=O)N[C@@H](CCCCNC(=O)CCCCCCCCCCCCCCC(=O)O)C(=O)N[C@@H](CCC(N)=O)C(=O)N[C@@H](CCC(N)=O)C(=O)N[C@@H](CC(=O)O)C(=O)N[C@@H](Cc1ccccc1)C(=O)N[C@H](C(=O)N[C@@H](CC(N)=O)C(=O)N[C@@H](Cc1c[nH]c2ccccc12)C(=O)N[C@@H](CC(C)C)C(=O)N[C@@H](CC(C)C)C(=O)N[C@@H](C)C(=O)N[C@@H](CCC(N)=O)C(=O)N[C@@H](CCCNC(=N)N)C(N)=O)C(C)C)[C@@H](C)CC` [AT500] (H-PGTFISDYSIAMDRIK(C16 diacid)QQDFVNWLLAQR-NH2; N-terminus assumed) the Emax (human GIP receptor [1]) was 4%, the “cAMP antagonism, % inhib” value (human GIP receptor [2]) was 77% and the IC50 (human GIP receptor [2]) was 66.8 nM. The “cAMP antagonism, % inhib” value (human GIP receptor [3]) was 90% and the “cAMP agonism, Emax” value (human GIP receptor [4]) was “No Agonism”.
